Measurements from patent US8546357B2, “Boron-containing small molecules for controlling ectoparasites” (priority 2011, dated 2013).

Legend:
[1] = tested on: American dog tick (Dermacentor variabilis) nymphs; assay: Efficacy against nymphal-stage American dog ticks on rats, oral; assay type: in vivo; settings: fipronil positive control, oral 10 mg/kg bodyweight, all studies
Experimental: Evaluations were conducted using a modified version of the assay as described in Gutierrez et al., J. Med. Entomol. 43(3): 526-532 (2006). This assay may be modified by simply using different tick species (the reference describes Amblyomma americanum ticks), such as Dermacentor variabilis or Rhipicephalus sanguineus ticks, as well as different life-stages (larval, nymphal or adult). Further, the reference describes using topical application methods, but oral, transdermal and subcutaneous injection routes of administration may be used.
In these studies, adult male or female rats, approximately 300 grams in size, were randomly assigned to a treatment group or a control (untreated negative control or fipronil positive control) group. Each group consisted of three (3) to five (5) rats. […] On Day 2, approximately forty-eight (48) hours after treatment, live and dead ticks were removed from animals and counted.
Live tick counts were transformed using the natural logarithm transformation plus one (Ln count+1); addition of one to each count served to adjust for counts that were zero. […] GM percent efficacy of treatments was calculated using the following formula:
Enantiomers were evaluated for activity against American dog tick (Dermacentor variabilis) nymphs on rats. […] On Day 2, approximately forty-eight (48) hours after treatment, live and dead ticks were removed from animals and counted. […]

[2] = tested on: Lone star tick larvae (Amblyomma americanum); assay: Larval immersion microassay against larval-stage Lone star ticks; settings: Amblyomma americanum, 24 h, read-out: activity (percent larval mortality)
Experimental: The larval immersion microassay was conducted as described in detail in White, et al., J. Med. Entomol. 41: 1034-1042 (2004). Compounds of the invention were formulated in dimethylsulfoxide (DMSO) to prepare a stock solution at a concentration of at least 10 mM. Using 96-well microtiter plates, an aliquot of the mM sample was subsequently diluted in a water-based solution containing 1% ethanol and 0.2% Triton X-100, to obtain the desired concentration (typically 0.3 mM or lower) of compound in a volume of 0.1 ml (minimum n=3 replicates per compound or concentration). Approximately 30-50 Lone star tick larvae (Amblyomma americanum) were submerged into each well containing compounds. After a 30 minute immersion period, larvae were removed with a wide-bore pipette tip in 0.05 ml of fluid, dispensed into a commercial paper tissue biopsy bag which was sealed at the top with a plastic dialysis clip, inverted and allowed to air dry for 60 minutes. Bags containing larvae were then incubated at approximately 27 degrees Celsius and >90% relative humidity. After 24 hours, bags were opened, live and dead larvae were counted and percent larval mortality was calculated.
7 and 8 contain one chiral center each, and are racemic mixtures comprised of approximately 50% R- and 50% S-enantiomer. In vitro and surrogate animal (rat) studies were conducted to evaluate the biological activity of the R- and S-enantiomers of 7 and 8. For the in vitro study, larvae of the Lone star tick (Amblyomma americanum) were exposed to 9, 10, 11 and 12 using the larval immersion microassay at a concentration of no greater than 0.3 mM. Following exposure, larvae were removed, transferred to a tissue biopsy bag and incubated at approximately 27 degrees Celsius and >90% relative humidity. After 24 hours, biopsy bags were opened and the numbers of live and dead larvae were determined

[3] = tested on: cat flea (Ctenocephalides felis); assay: Residual efficacy against adult cat flea infestations on dogs, oral; assay type: in vivo; settings: Table 2, oral capsule 25 mg/kg, Day 32
Experimental: (§1) Immediately following removal of D. variabilis ticks on Day 30, dogs were co-infested with approximately 50 adult, unfed brown dog ticks (R. sanguineus, approximately 50% male and 50% female) and approximately 100 adult, unfed cat fleas (C. felis, approximately 50% male and 50% female). Ticks and fleas were counted and removed on Day 32 (approximately 48 hours after infestation). GM percent efficacy of treatments against both tick species and fleas was calculated using the following formula: […]
(§2) The therapeutic (knockdown) and residual efficacy of 7, administered orally at a point dose of 35 mg/kg bodyweight, was evaluated against adult tick (Dermacentor variabilis and Rhipicephalus sanguineus) and adult cat flea (Ctenocephalides felis) infestations on dogs. Twelve (12) male and female beagle dogs were allocated to either an untreated, negative control group or 7 group (n=6 dogs per group). Dogs were infested with approximately 50 unfed, adult D. variabilis ticks on Days −1, 5, 12, 19, 28, 35 and 42. On Day 0, dogs were orally administered gelatin capsules containing Compound 8194 (50% technical active, 47% microcrystalline cellulose and 3% croscarmellose sodium, w/w) at a point dose of 35 mg/kg. D. variabilis tick counts and classification were conducted on Day 1 (thumb count, approximately 24 hours after treatment) and Days 2, 7, 14, 21, 30, 37 and 44 (approximately 48 hours after treatment). Following removal of D. variabilis ticks on Day 30, all dogs were co-infested with approximately 50 unfed, adult brown dog ticks (R. sanguineus) and approximately 100 unfed, adult cat fleas (C. felis). Brown dog tick and cat flea counts were conducted on Day 32 (approximately 48 hours after infestation). GM percent efficacy of treatments against both tick species and fleas was calculated using the following formula: […]
(§3) The therapeutic (knockdown) and residual efficacy of S-enantiomer, 9, administered orally at a point dose of 25 mg/kg bodyweight, was evaluated against adult tick (Dermacentor variabilis and Rhipicephalus sanguineus) and adult cat flea (Ctenocephalides felis) infestations on dogs. Twelve (12) male and female beagle dogs were allocated to either an untreated, negative control group or 9 group (n=6 dogs per group). Dogs were infested with approximately 50 unfed, adult D. variabilis ticks on Days −1, 5, 12, 19, and 28. On Day 0, dogs were orally administered gelatin capsules containing 9 (50% technical active, 47% microcrystalline cellulose and 3% croscarmellose sodium, w/w) at a point dose of 25 mg/kg. D. variabilis tick counts and classification were conducted on Day 1 (thumb count, approximately 24 hours after treatment) and Days 2, 7, 14, 21 and 30 (approximately 48 hours after treatment). Following removal of D. variabilis ticks on Day 30, all dogs were co-infested with approximately 50 unfed, adult brown dog ticks (R. sanguineus) and approximately 100 unfed, adult cat fleas (C. felis). Brown dog tick and cat flea counts were conducted on Day 32 (approximately 48 hours after infestation). GM percent efficacy of treatments against both tick species and fleas was calculated using the following formula: […]

[4] = tested on: brown dog tick (Rhipicephalus sanguineus); assay: Residual efficacy against adult brown dog tick infestations on dogs, oral; assay type: in vivo; settings: Table 2, oral capsule 25 mg/kg, Day 32
Experimental: as §1, §2, §3

[5] = Tolerability of oral treatment in dogs; assay type: in vivo, dog; settings: Example 6, oral capsule 25 mg/kg
Experimental: (§4) The therapeutic (knockdown) and residual efficacy of 5, administered orally at a point dose of 25 mg/kg bodyweight, was evaluated against adult American dog tick (D. variabilis) infestations on dogs. Six beagle dogs were allocated to one of two treatment groups, an untreated control group (n=4 dogs) or 5 group (n=2 dogs). On Day 0, two dogs were treated with 5 via oral gavage (25 mg/ml 5, dissolved in a solution of 55% polyethylene glycol-300, 35% propylene glycol and 10% water) at a point dose of approximately 25 mg/kg. Twenty-four (24) hours before treatment (Day −1), all dogs were infested with approximately 50 unfed, adult-stage American dog ticks (D. variabilis; approximately 50% male and 50% female). On Day 1, approximately 24 hours after treatment, thumb counts were conducted to determine the number and life-status classification of ticks present on all dogs (normal, moribund or dead; attached or detached). Ticks were not removed during thumb counts. On Day 2, approximately 48 hours after treatment, all ticks were classified and removed from dogs. Dogs were re-infested with approximately 50 unfed, adult D. variabilis ticks on Days 5 and 12, with tick classification, counts and removal on Days 7 and 14 (approximately 48 hours after each infestation).
(§5) The therapeutic (knockdown) and residual efficacy of 7 and 8, each administered orally at a point dose of 25 mg/kg bodyweight, was evaluated against adult tick (Dermacentor variabilis and Rhipicephalus sanguineus) and adult cat flea (Ctenocephalides felis) infestations on dogs. Twelve (12) male and female beagle dogs were randomly allocated to one of three treatment groups, four (4) dogs per group: Untreated control; 7, 25 mg/kg; and 8, 25 mg/kg. On Day −1, all dogs were infested with approximately 50 unfed, adult D. variabilis ticks. On Day 0, dogs were orally administered gelatin capsules containing either 7 or 8 (50% technical active, 47% microcrystalline cellulose and 3% croscarmellose sodium, w/w). Ticks were counted and classified, but not removed, on all dogs on Day 1, approximately 24 hours after treatment. On Day 2, approximately 48 hours after treatment, ticks were counted, classified and removed. Dogs were re-infested with the same number of D. variabilis ticks on Days 5, 12, 19 and 28 and tick counts were conducted on Days 7, 14, 21 and 30.
The therapeutic (knockdown) and residual efficacy of 7, administered orally at a point dose of 35 mg/kg bodyweight, was evaluated against adult tick (Dermacentor variabilis and Rhipicephalus sanguineus) and adult cat flea (Ctenocephalides felis) infestations on dogs. Twelve (12) male and female beagle dogs were allocated to either an untreated, negative control group or 7 group (n=6 dogs per group). Dogs were infested with approximately 50 unfed, adult D. variabilis ticks on Days −1, 5, 12, 19, 28, 35 and 42. On Day 0, dogs were orally administered gelatin capsules containing Compound 8194 (50% technical active, 47% microcrystalline cellulose and 3% croscarmellose sodium, w/w) at a point dose of 35 mg/kg. […] GM percent efficacy of treatments against both tick species and fleas was calculated using the following formula: […]
The therapeutic efficacy and speed of kill of 7, administered orally at a point dose of 20 mg/kg bodyweight, was evaluated against adult cat flea (Ctenocephalides felis) infestations on dogs. […]

[6] = tested on: adult American dog tick (Dermacentor variabilis); assay: Therapeutic (knockdown) and residual efficacy against adult American dog tick infestations on dogs, oral; assay type: in vivo; settings: for Geometric mean group live parasite counts / % efficacy: Table 2, oral capsule 25 mg/kg
Experimental: as §4, §5, §2
The therapeutic (knockdown) and residual efficacy of S-enantiomer, 9, administered orally at a point dose of 25 mg/kg bodyweight, was evaluated against adult tick (Dermacentor variabilis and Rhipicephalus sanguineus) and adult cat flea (Ctenocephalides felis) infestations on dogs. […]

Structure (SMILES) | efficacy (% reduction in live tick counts) [1] [%] | mortality at 300 µM [2] [%] | Geometric mean group live parasite counts [3] | Geometric mean group live parasite counts [4] | tolerability [5] | continued residual efficacy ([6]; Example 6, oral capsule 25 mg/kg, through at least 14 days) [%] | Geometric mean group live parasite counts ([6]; Day 1) | % efficacy ([6]; Day 2) | Geometric mean group live parasite counts ([6]; Day 2) | % efficacy ([6]; Day 7) | Geometric mean group live parasite counts ([6]; Day 7) | % efficacy ([6]; Day 14) | Geometric mean group live parasite counts ([6]; Day 14) | % efficacy ([6]; Day 21) | Geometric mean group live parasite counts ([6]; Day 21) | % efficacy ([6]; Day 30) | Geometric mean group live parasite counts ([6]; Day 30)
N#Cc1nn(-c2c(Cl)cc(C(F)(F)F)cc2Cl)c(N)c1[S+]([O-])C(F)(F)F (centres unmarked) [Fipronil, fipronil, reference compound] | > 95 |  |  |  |  |  |  |  |  |  |  |  |  |  |  |  | 
Cc1cc(C2=NOC(c3cc(Cl)c(F)c(Cl)c3)(C(F)(F)F)C2)ccc1C(=O)NCc1ccc2c(c1)B(O)OC2(C)C (racemic) [Compound 8, 4-(5-(3,5-Dichloro-4-fluorophenyl)-5-(trifluoromethyl)-4,5-dihydroisoxazol-3-yl)-N-((1-hydroxy-3,3-dimethyl-1,3-dihydrobenzo[c][1,2]oxaborol-6-yl)methyl)-2-methylbenzamide] |  | ≥ 80 | 7.1 | 4.1 | well tolerated | 100 | 0.0 | (100) % | 0.0 | (100) % | 0.0 | (100) % | 0.0 | (98.4) % | 0.7 | (81.0) % | 6.7
